These results are taken from US10450314B2, “Pteridine derivatives as modulators of ROR gamma” (Boehringer Ingelheim International GmbH, priority 2015, dated 2019).

Each structure is given as a SMILES string.

For one data set, the target named is T1, RORγ (Homo sapiens, UniProt P51449).
T1 construct: expressed in transfected cells; host or cells: HEK 293 cells, transiently cotransfected with pGL4.3 luc2P/GAL4UAS/Hygro reporter
T1 sequence (P51449 269-508 limits assumed): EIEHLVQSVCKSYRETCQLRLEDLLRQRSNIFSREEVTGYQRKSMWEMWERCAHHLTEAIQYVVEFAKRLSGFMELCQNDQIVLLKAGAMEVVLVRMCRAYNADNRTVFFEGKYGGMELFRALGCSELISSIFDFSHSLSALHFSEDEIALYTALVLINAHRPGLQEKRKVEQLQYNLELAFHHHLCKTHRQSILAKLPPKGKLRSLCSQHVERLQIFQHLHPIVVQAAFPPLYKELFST
In words: RORγ Reporter Gene Assay (RGA), luciferase transactivation in transiently transfected HEK 293 cells. The format is cell-based. To be noted: HEK 293 cells cotransfected with pGL4.3 luc2P/GAL4UAS and pBIND Gal4DBD hRORC LBD; 20-24 h incubation.

A short description of data set [1]: Human liver microsome (HLM) metabolic stability assay. The conditions noted are these: human liver microsomes, 1 uM compound, 37° C., 60 min; % hepatic blood flow. In kind it is in vitro ADME. Summed up: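 Compounds at 1 uM incubated with human liver microsomes plus NADPH at 37° C for up to 60 min, n=1. Aliquots quenched in cold acetonitrile at 0, 5, 15, 30, 60 min and analysed by LC/MS/MS. Percent remaining versus 0 min gives the ln-plot slope; t1/2 = 0.693/slope, also CLint, CLh, % Qh.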
Background: Liver microsomes are a subcellular fraction often used to study metabolism.

The IC50 is the point on the concentration scale where inhibition reaches its midpoint. The low end stands for greater potency, the high end for weaker potency. With `CC[C@H](C)n1c(=O)c(NCc2ccc(S(N)(=O)=O)cn2)nc2c(C)nc(-c3c(C)ncnc3C3CC3)nc21` [Example 85], 270 nM corresponded to half-maximal inhibition at RORγ (IC50). In addition, in data set [1], the “HLM (% Qh)” value is listed as under 24 % Qh.
Compound `CC[C@@H](C)n1c(=O)c(NCc2ccc(S(=O)(=O)CC)cn2)nc2c(C)nc(-c3c(OC)ncnc3C3CC3)nc21` [Example 86] gave an IC50 on RORγ of 73 nM. Moreover, the “HLM (% Qh)” value in data set [1] was under 24 % Qh.
On RORγ, `CCS(=O)(=O)c1ccc(CNc2nc3c(C)nc(-c4c(OC)ncnc4C4CC4)nc3n([C@@H](C)C(F)(F)F)c2=O)nc1` [Example 88] returned an IC50 of 102 nM. In addition, the “HLM (% Qh)” value in data set [1] came out at 38 % Qh.
On the same counts, the results for `CCS(=O)(=O)c1cnc(CNc2nc3c(C)nc(-c4c(C)ncnc4C4CC4)nc3n(C(C)C(F)F)c2=O)nc1` (stereo not shown) [Example 89] are 225 nM and under 24 % Qh.
As to `Cc1ncnc(C2CC2)c1-c1nc(C)c2nc(NCc3ccc(S(C)(=O)=O)cn3)c(=O)n(C(C)C(F)F)c2n1` (stereo not shown) [Example 90], on RORγ, the IC50 worked out at 235 nM. Also, the “HLM (% Qh)” value in data set [1] is under 24 % Qh.
At RORγ, `CCS(=O)(=O)c1cnc(CNc2nc3c(C)nc(-c4c(C)ncnc4C4CC4)nc3n([C@H](C)C(F)F)c2=O)nc1` [Example 93] returned an IC50 of 185 nM. For the same compound, the “HLM (% Qh)” value in data set [1] is on record as under 24 % Qh.
The corresponding values for `CCS(=O)(=O)c1cnc(CNc2nc3c(C)nc(-c4c(C)ncnc4C4CC4)nc3n([C@@H](C)C(F)F)c2=O)nc1` [Example 94] are 205 nM and under 24 % Qh.
On to `COc1ncnc(C2CC2)c1-c1nc(C)c2nc(NCc3ccc(S(N)(=O)=O)cn3)c(=O)n([C@@H](C)C(F)(F)F)c2n1` [Example 95], for which the half-maximal inhibitory concentration (IC50) at RORγ turned out to be 150 nM. Besides, in data set [1], the “HLM (% Qh)” value came to 40 % Qh.
The corresponding values for `Cc1ncnc(C2CC2)c1-c1nc(C)c2nc(NCc3ccc(S(N)(=O)=O)cn3)c(=O)n([C@@H](C)C(F)(F)F)c2n1` [Example 96] are 280 nM and under 24 % Qh.
Regarding `COc1ncnc(C2CC2)c1-c1nc(C)c2nc(NCc3ccc(S(N)(=O)=O)nc3)c(=O)n([C@@H](C)C(F)(F)F)c2n1` [Example 97], at RORγ, the IC50 was determined as 320 nM. The “HLM (% Qh)” value in data set [1] is reported as 46 % Qh.
As to `Cc1ncnc(C2CC2)c1-c1nc(C)c2nc(NCc3ccc(S(N)(=O)=O)nc3)c(=O)n([C@@H](C)C(F)(F)F)c2n1` [Example 98], at RORγ, the IC50 came out at 1100 nM. For the same compound, the “HLM (% Qh)” value in data set [1] was under 24 % Qh.
